From article PMC7012012, “Bioassay-guided isolation, identification of compounds from Origanum rotundifolium and investigation of their antiproliferative and antioxidant activities” (Pharmaceutical Biology, 2017)
Several values for one entry are separate records, joined by “and”; a condition that tells them apart may be missing. Equal entries are not always repeated.

What was measured:
[1] = Ferric ions (Fe3+) reducing antioxidant power assay (FRAP); conditions: 10 μg/mL
Description: Different concentrations of samples (5–40 μg/mL) in 1 mL of deionized water were mixed with sodium phosphate buffer (1.25 mL, 0.2 M, pH 6.6) and potassium ferricyanide [K3Fe(CN)6] (1.25 mL, 1%). After the incubation of the mixture at 50 °C for 20 min, trichloroacetic acid (1.25 mL, 10%) and FeCl3 (0.25 mL, 0.1%) were added to the reaction medium. The reaction mixture was vortexed thoroughly and absorbance measurement at 700 nm was executed in a spectrophotometer.

[2] = ABTS radical cation scavenging assay; conditions: 30 min, absorbance 734 nm; unit printed only in abstract
Description: 2,2″-Azino-bis (3-ethylbenzthiazoline-6-sulfonic acid) (ABTS) cation radical scavenging assay based on the decreasing ABTS radical cation, a blue/green chromophore with absorption at […], in comparison to that of BHA, BHT and Trolox. This method was executed as in the literature (Re et al. [1999]). Treatment of ABTS (2.0 mM) in phosphate buffer (0.1 M, pH 7.4) with potassium persulfate (K2S2O8) (2.45 mM) gave the ABTS^•+, kept at dark at Rt for 4 h. Initially, dilution of ABTS^•+ was performed with sodium phosphate buffer (pH 7.4, 0.1 M) to obtain absorbance 0.750 ± 0.025 at 734 nm. After all, ABTS^•+ solution (1.0 mL) was added to each extract solution in ethanol (3.0 mL) at different concentration (2.5–20 μg/mL). After 30 min, the inhibition was calculated for each concentration relative to a blank absorbance. The scavenging ability of ABTS^•+ was calculated by given equation:
ABTS^•+scavenging activity (%)=[(Ac – As)/Ac]*100 in which, Ac is the initial concentration of ABTS^•+ and As is the absorbance of the remaining concentration of ABTS^•+ in the samples.

[3] = DPPH free radical scavenging assay; conditions: 30 min, absorbance 517 nm
Description: The free radical scavenging activities of extracts and standards were evaluated by 2,2-diphenyl-1-picrylhydrazil (DPPH^•) (Blois [1958]). To a different concentration of 3.0 mL of extract (3.0–20 μg/mL) in ethanol, DPPH^• solution (1.0 mL, 0.26 mM) were added. After that it is stirred and kept at Rt for 30 min, The absorbance of the mixture was executed at 517 nm in a spectrophotometer. The activity was calculated by the below equation. DPPH• scavenging effect %=Ac-As/Ac×100
In which, Ac and As are the control and sample absorbance, respectively.

[4] = test system: Vero (African green monkey kidney epithelium) cells; assay: BrdU cell proliferation ELISA, Vero; format: cell-based; conditions: for IC50: BrdU ELISA; for Antiproliferative activity on Vero (in words): 5-100 μg/mL
Description: (§1) Anticancer potential of isolated compounds was investigated on C6, HT29, HeLa and Vero cell lines. These cells were sustained with Dulbecco’s modified eagle’s medium, complemented with foetal bovine serum and PenStep solution (ATCC, American Type Culture Collection). The old medium was aspirated out of the plate while cells had reached a confluence of 80% then cells were removed from the flasks using trypsin-EDTA (4 mL) and centrifuged. Afterward, cell pellet was suspended with DMEM and was counted to gain a final concentration as 5 × 10^4 cells/mL, inoculated into wells (100 μL cells/well).
(§2) The antiproliferative activity of compounds against various cell lines (C6, HeLa and Vero cells) was tested by cell proliferation assay using BrdU Cell Proliferation ELISA kit. A cell suspension containing nearly 5 × 10^3 cells in 100 μL was conveyed into the well cell plates (96-well cell). The treatments of cells with compounds in DMSO and 5-Florouracil (5 FU) in DMSO separately at concentration 5–100 μg/mL were carried out. The last volume of the wells was adapted to 200 μL by DMEM and mixture was incubated at 37 °C with 5% CO2 for overnight (Okten et al. [2013]).
(§3) The half inhibitory concentration of the isolated compounds and standards was calculated by XLfit5 software (IDBS) and explicated in μM at 95% confidence levels (Table 1). The proliferation results were recorded as the per cent inhibition of the compounds and control substances. The following formula was used for the calculation of inhibition % Inhibition = [Asample– Acontrol/Acontrol]×100
(§4) where Asample is the absorbance of the compounds and Acontrol is the absorbance of the DMSO.

[5] = test system: HeLa (human cervix carcinoma) cell lines; assay: BrdU cell proliferation ELISA, HeLa; format: cell-based; conditions: for Tumour specificity HeLa: HeLa relative to Vero; for IC50: BrdU ELISA
Description: as §1, §2, §3, §4

[6] = test system: HT29 (human colon carcinoma) cell lines; assay: BrdU cell proliferation ELISA, HT29; format: cell-based; conditions: for Tumour specificity HT29: HT29 relative to Vero
Description: as §1, §2, §3, §4

[7] = test system: C6 (rat brain tumour) cell lines; assay: BrdU cell proliferation ELISA, C6; format: cell-based; conditions: for IC50: C6, BrdU ELISA; for Tumour specificity C6: C6 relative to Vero; for Antiproliferative activity on C6 (in words): C6, 5-100 μg/mL
Description: as §1, §2, §3, §4

[8] = Homo sapiens, HT-29, HT29, BrdU ELISA

| ABTS radical cation scavenging IC50 [2] | IC50 [3] | IC50 ([5]; Homo sapiens, HeLa) | IC50 [6, 8] | IC50 ([7]; Rattus norvegicus) | Compound | Reducing power (absorbance at 700 nm) [1] | IC50 [4] | Tumour specificity HeLa [5] | IC50 ([5]; HeLa) | IC50 ([6]; HT29, BrdU ELISA) | Tumour specificity HT29 [6] | IC50 [7] | IC50 ([7]; listed as cisplatin) | Tumour specificity C6 [7] | Antiproliferative activity on Vero (in words) [4] | Antiproliferative activity on HeLa (in words) ([5]; HeLa, 5-100 μg/mL) | Antiproliferative activity on HT29 (in words) ([6]; HT29, 5-100 μg/mL) | Antiproliferative activity on C6 (in words) [7] | IC50 ([4]; Chlorocebus sabaeus) |
| --- | --- | --- | --- | --- | --- | --- | --- | --- | --- | --- | --- | --- | --- | --- | --- | --- | --- | --- | --- |
| 5.0 µg/mL | 196 µM |  |  |  | Cc1cc(C(C)(C)C)c(O)c(C(C)(C)C)c1 [BHT, Butylated hydroxytoluene, reference compound] | 0.81 |  |  |  |  |  |  |  |  |  |  |  |  |  |
|  |  |  |  |  | N.N.[Cl][Pt][Cl] [Cisplatin, reference compound] |  | 40.8 µM | 0.92 | 44.2 µM | 48.6 µM | 0.84 | 61.5 µM | 61.5 µM | 0.66 |  |  |  |  |  |
| 8.9 µg/mL | 173 µM |  |  |  | O=c1cc(-c2ccc(O)cc2)oc2cc(O)cc(O)c12 [Compound 1, Apigenin] | 0.14 |  |  |  |  |  |  |  |  | did not reveal the remarkable activity | did not reveal the noticeable activity | has not a noteworthy effect | Noticeable effect has not been detected |  |
| 14.2 µg/mL | 47.2 µM | 233 µM | 262 µM | 252 µM | O=C(/C=C/c1ccc(O)c(O)c1)O[C@H](Cc1ccc(O)c(O)c1)C(=O)O [Compound 5, rosmarinic acid] | 0.60 |  | 1.19 |  | 262 µM | 1.07 | 251 µM |  | 1.11 | good effect |  |  |  | 279 µM |
| 4.6 µg/mL | 22.4 µM | 140 µM | 136 µM | 169 µM | O=C(OC(Cc1ccc(O)c(O)c1)C(=O)O)c1cc(-c2ccc(O)c(O)c2)c2cc(O)c(O)cc2c1 (centres unmarked) [Compound 6, globoidnan A] | 1.25 |  |  | 140 µM | 136 µM |  | 169 µM |  |  | did not reveal the remarkable activity |  |  |  |  |
| 13.8 µg/mL |  |  |  |  | Cc1c(C)c2c(c(C)c1O)CCC(C)(C(=O)O)O2 (centres unmarked) [Trolox, reference compound] | 0.61 |  |  |  |  |  |  |  |  |  |  |  |  |  |

| Compound | ABTS radical cation scavenging IC50 [2] | IC50 [3] | IC50 ([5]; Homo sapiens, HeLa) | IC50 [6, 8] | IC50 ([7]; Rattus norvegicus) | Reducing power (absorbance at 700 nm) [1] | IC50 [4] | Tumour specificity HeLa [5] | IC50 ([5]; HeLa) | IC50 ([6]; HT29, BrdU ELISA) | Tumour specificity HT29 [6] | IC50 [7] | IC50 ([7]; listed as cisplatin) | Tumour specificity C6 [7] | Antiproliferative activity on Vero (in words) [4] | Antiproliferative activity on HeLa (in words) ([5]; HeLa, 5-100 μg/mL) | Antiproliferative activity on HT29 (in words) ([6]; HT29, 5-100 μg/mL) | Antiproliferative activity on C6 (in words) [7] | IC50 ([4]; Chlorocebus sabaeus) |
| --- | --- | --- | --- | --- | --- | --- | --- | --- | --- | --- | --- | --- | --- | --- | --- | --- | --- | --- | --- |
| COc1ccc(O)c(C(C)(C)C)c1 [BHA, butylated hydroxyanisole, reference compound] | 7.6 µg/mL | 12.9 µM |  |  |  | 1.12 |  |  |  |  |  |  |  |  |  |  |  |  |  |
| caprolactam [Compound 4] | 61.5 µg/mL | 329 µM |  |  |  | 0.08 |  |  |  |  |  |  |  |  | did not reveal the remarkable activity |  |  | Noticeable effect has not been detected |  |
| vitexin [Compound 3] | 3.6 µg/mL and 3.7 µg/mL | 31.4 µM |  |  |  | 0.27 | 46.7 µM | 1.31 | 35.6 µM | 32.5 µM | 1.43 | 41.6 µM |  | 1.12 | effective at high concentrations |  |  |  |  |
